Measurements reported in US20160263189A1, “TREATMENT OF A NEURODEGENERATIVE DISEASE OR DISORDER” (ACADIA Pharmaceuticals Inc., priority 2013, published 2016).

Columns and labels:
[1] = test system: Ret; assay: Ret immunolabeling in the SNc of 6OHDA-lesioned rats; assay type: in vivo, Sprague-Dawley rats; conditions: 1 mg/kg/day subcutaneously for 28 days starting 3 days after bilateral 6OHDA infusion into the SNc
From the text: Sprague-Dawley rats received saline infusions (denoted sham) or bilateral infusions of 6OHDA into the SNc (denoted lesion) as described (McFarland et al., 2013). […] A), RET positive cells expressed as % of sham; B), sham; C), vehicle treated lesioned animals; D) bexarotene treated lesioned animals. Shown are representative images of substantia nigral tissue immunolabeled for Ret.

[2] = test system: primary cultures of dopaminergic neurons previously exposed to MPP+; assay: TH positive neurons in primary cultures of dopaminergic neurons after MPP+ injury
[3] = test system: primary cultures of dopaminergic neurons previously exposed to alpha-synuclein (α-syn); assay: TH positive neurons in primary cultures of dopaminergic neurons exposed to alpha-synuclein; assay type: cell-based, rat; conditions: for increase in TH positive neurons over the α-synuclein alone condition: α-synuclein peptide 250 nM, 96 h; for survival of TH positive neurons compared to the control condition: neurons treated with alpha-synuclein
Method: Cultured neurons were treated as described above. On day 7, the media was removed, and fresh media with the α-synuclein peptide (250 nM) was added. On day 8, the media was removed, and fresh media with the α-synuclein peptide (250 nM) and the indicated drug treatments was added.
Cultured neurons were treated with alpha-synuclein as described above.

Molecule | RET expression relative to sham animals [1] | RET positive cells in the SNc (expressed as % of sham) ([1]; vs Lesion/Veh, p<0.05) | increase in TH positive neurons over the MPP alone condition ([2]; 5 nM bexarotene alone) [%] | % of TH positive cells compared to cells treated with MPP+ alone ([2]; 0.3, 1 or 3 nM bexarotene alone, 24 h MPP+ injury (4 μM), drugs for 48 h) | increase in TH positive neurons over the α-synuclein alone condition ([3]; bexarotene alone 10 nM) [%] | survival of TH positive neurons compared to the control condition ([3]; bexarotene alone 100 nM) [%] | increase in TH positive neurons over the MPP alone condition ([2]; 2 ng/ml GDNF alone) [%] | increase in TH positive neurons over the α-synuclein alone condition ([3]; GDNF alone 12.5 ng/ml) [%] | survival of TH positive neurons compared to the control condition ([3]; GDNF alone 100 ng/ml) [%]
C=C(c1ccc(C(=O)O)cc1)c1cc2c(cc1C)C(C)(C)CCC2(C)C [bexarotene, Bexarotene] | increased RET expression above the levels in the sham animals | reversed the loss of RET positive cells | 9 | not able to significantly increase | 8 | 88 | – | – | –
GDNF: glial-cell-line-derived neurotrophic factor, a trophic factor (protein, UniProt P39905 78-211, looked up) Glial cell line-derived …: SPDKQMAVLPRRERNRQAAAANPENSRGKGRRGQRGKNRGCVLTAIHLNVTDLGLGYETKEELIFRYCSGSCDAAETTYDKILKNLSRNRRLVSDKVGQACCRPIAFDDDLSFLDDNLVYHILRKHSAKRCGCI | – | – | – | – | – | – | 3 | 8 | 96
